This is an account of results in BindingDB's records for doi:10.1021/jm00019a005 (Warner-Lambert, 1995).

For the assay, the target named is Type-2 angiotensin II receptor (Oryctolagus cuniculus). Kind of assay: The compound was tested for binding affinity against Angiotensin II receptor, type 2 from rabbit uterus membrane by using [125I]AngII as radioligand.

Structures are written as SMILES.

For `CCCCc1ncc(C=C2C(=O)NC(=O)N2CCCC)n1Cc1ccc(-c2ccccc2-c2nnn[nH]2)cc1` [1-Butyl-5-[1-{2-butyl-3-[2'-(1H-tetrazol-5-yl)-biphenyl-4-ylmethyl]-3H-imidazol-4-yl}-meth-(Z)-ylidene]-imidazolidine-2,4-dione], the IC50 stood at 0.789 µM.

For the compound `CCCCc1ncc(/C=C2/C(=O)N(CCCC)C(=O)N2CCCC)n1Cc1ccc(C(=O)OC)cc1` [4-{2-Butyl-5-[1,3-dibutyl-2,5-dioxo-imidazolidin-(4Z)-ylidenemethyl]-imidazol-1-ylmethyl}-benzoic acid methyl ester], the IC50 is 5.87 µM.
